Assay results as given in patent US11331299B2, “Medicinal use of serrulatane diterpenes” (The University of Sydney, priority 2016, dated 2022).
Structures can show the parent of a compound that is named as a salt. Where two headings read alike, the source gives them in different places.

How the values were obtained:
USP 16 (h) = USP 16 (h) (Homo sapiens, UniProt Q9Y5T5); assay: Epigenetic enzyme assay, Ubiquitin modifying enzymes; format: biochemical; conditions: Table 10; read-out: Reference IC50
ATAD2B (h) bromodomain = target: T1, ATAD2B (h) bromodomain (Homo sapiens, UniProt Q9ULI0); assay: Epigenetic binding assay, Bromodomain; conditions: Table 4; read-out: Reference IC50
T1 construct: ATAD2B bromodomain; host or cells: E. coli
T1 sequence (Q9ULI0 951-1066 limits assumed): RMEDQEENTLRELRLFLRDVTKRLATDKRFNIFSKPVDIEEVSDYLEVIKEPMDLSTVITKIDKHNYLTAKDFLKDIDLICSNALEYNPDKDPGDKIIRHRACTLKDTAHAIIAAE

PB1(4) (h) bromodomain = target: T2, PB1(4) (h) bromodomain (Homo sapiens, UniProt Q86U86); assay: Epigenetic binding assay, Bromodomain; conditions: Table 4; read-out: Reference IC50
T2 construct: Bromodomain

USP 10 (h) = USP 10 (h) (Homo sapiens, UniProt Q14694); assay: Epigenetic enzyme assay, Ubiquitin modifying enzymes; format: biochemical; conditions: Table 10; read-out: Reference IC50
Lipid Peroxidase = assay: Lipid Peroxidase; format: biochemical, Dunkin Hartley Guinea pig; conditions: concentration-response 10 to 0.01 μM
[1] = system: 4 normal cell types, CCD 841 CoN, HMEC, HREC and Wi38; assay: OncoPanel normal cell proliferation assay (3-day), panel; format: cell-based; conditions: the other three cell lines (CCD 841 CoN, HREC, Wi38)
HREC = assay: OncoPanel normal cell proliferation assay (3-day); format: cell-based; conditions: 72 h, renal mixed epithelial, 3-day incubation
HMEC = assay: OncoPanel normal cell proliferation assay (3-day); format: cell-based
Wi38 = assay: OncoPanel normal cell proliferation assay (3-day); format: cell-based; conditions: Homo sapiens, WI-38, 72 h, Wi38, lung fibroblast, 3-day incubation
CCD 841 CoN = assay: OncoPanel normal cell proliferation assay (3-day); format: cell-based; conditions: Homo sapiens, 72 h, colon epithelial, 3-day incubation
[2] = system: IL-17A secretion from human PBMC stimulated with antiCD3/antiCD28-coated beads; conditions: assay description, reference compound, cited from earlier work
NSD1 (h) = NSD1 (h) (Homo sapiens, UniProt Q96L73); assay: Epigenetic enzyme assay, Methyltransferases (MTs); format: biochemical
WHSC1(h) (NSD2(h)) = target: T3, WHSC1(h) (NSD2(h)) (Homo sapiens, UniProt O96028); assay: Epigenetic enzyme assay, Methyltransferases (MTs); format: biochemical; conditions: Table 10; read-out: Reference IC50
T3 sequence (O96028 1-1365): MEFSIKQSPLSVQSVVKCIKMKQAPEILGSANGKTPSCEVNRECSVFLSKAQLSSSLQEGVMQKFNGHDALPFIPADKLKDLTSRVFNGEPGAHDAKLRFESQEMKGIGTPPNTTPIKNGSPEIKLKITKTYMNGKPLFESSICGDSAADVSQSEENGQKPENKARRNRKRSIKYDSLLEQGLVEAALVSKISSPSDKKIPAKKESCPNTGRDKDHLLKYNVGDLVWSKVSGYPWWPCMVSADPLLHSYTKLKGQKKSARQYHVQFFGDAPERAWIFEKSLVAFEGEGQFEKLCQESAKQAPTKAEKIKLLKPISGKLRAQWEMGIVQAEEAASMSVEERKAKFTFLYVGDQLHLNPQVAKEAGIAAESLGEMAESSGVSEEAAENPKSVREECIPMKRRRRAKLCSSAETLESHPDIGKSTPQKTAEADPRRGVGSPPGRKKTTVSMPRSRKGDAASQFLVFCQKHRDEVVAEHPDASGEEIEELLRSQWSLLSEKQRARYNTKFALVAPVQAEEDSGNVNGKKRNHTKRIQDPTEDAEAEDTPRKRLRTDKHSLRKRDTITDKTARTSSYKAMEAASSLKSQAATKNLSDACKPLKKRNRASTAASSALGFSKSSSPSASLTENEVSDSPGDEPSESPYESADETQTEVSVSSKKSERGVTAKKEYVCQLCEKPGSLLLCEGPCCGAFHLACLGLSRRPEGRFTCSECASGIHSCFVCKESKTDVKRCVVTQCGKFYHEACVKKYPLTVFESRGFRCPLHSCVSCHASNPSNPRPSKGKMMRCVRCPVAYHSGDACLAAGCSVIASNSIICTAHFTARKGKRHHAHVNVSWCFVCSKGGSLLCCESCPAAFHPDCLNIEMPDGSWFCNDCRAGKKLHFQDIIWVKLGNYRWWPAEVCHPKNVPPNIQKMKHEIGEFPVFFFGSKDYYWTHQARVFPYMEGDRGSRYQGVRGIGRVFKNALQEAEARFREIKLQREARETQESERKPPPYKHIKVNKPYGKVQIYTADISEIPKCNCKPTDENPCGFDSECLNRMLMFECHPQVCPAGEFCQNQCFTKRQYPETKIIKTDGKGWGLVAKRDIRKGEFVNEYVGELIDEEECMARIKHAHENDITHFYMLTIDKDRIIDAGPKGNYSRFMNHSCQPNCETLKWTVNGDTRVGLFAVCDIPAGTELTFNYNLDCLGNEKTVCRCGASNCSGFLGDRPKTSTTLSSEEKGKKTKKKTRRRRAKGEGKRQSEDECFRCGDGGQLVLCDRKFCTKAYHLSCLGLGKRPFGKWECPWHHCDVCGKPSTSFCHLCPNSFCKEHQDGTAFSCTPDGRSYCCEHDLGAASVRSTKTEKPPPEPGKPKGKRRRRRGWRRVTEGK

SETD8 (h) = target: T4, SETD8 (h) (Homo sapiens, UniProt Q9NQR1); assay: Epigenetic enzyme assay, Methyltransferases (MTs); format: biochemical; conditions: Table 10; read-out: Reference IC50
T4 sequence (Q9NQR1 1-393): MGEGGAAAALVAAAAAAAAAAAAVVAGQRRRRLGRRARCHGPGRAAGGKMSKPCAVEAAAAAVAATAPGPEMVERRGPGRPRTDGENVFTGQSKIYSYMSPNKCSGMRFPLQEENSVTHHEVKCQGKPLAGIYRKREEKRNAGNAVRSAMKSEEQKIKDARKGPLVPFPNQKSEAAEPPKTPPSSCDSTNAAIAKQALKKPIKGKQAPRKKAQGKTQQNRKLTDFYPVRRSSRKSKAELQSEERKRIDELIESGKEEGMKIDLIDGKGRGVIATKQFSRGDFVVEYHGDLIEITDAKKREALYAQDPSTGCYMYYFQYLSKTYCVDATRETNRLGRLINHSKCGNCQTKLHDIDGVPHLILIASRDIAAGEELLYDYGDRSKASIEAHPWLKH

[3] = target: T5, sirtuin 2 (h) (inhibitor effect) (Homo sapiens, UniProt Q8IXJ6); assay: Epigenetic enzyme assay, Sirtuins; format: biochemical; conditions: Table 10; read-out: Reference IC50
T5 sequence (Q8IXJ6 1-389): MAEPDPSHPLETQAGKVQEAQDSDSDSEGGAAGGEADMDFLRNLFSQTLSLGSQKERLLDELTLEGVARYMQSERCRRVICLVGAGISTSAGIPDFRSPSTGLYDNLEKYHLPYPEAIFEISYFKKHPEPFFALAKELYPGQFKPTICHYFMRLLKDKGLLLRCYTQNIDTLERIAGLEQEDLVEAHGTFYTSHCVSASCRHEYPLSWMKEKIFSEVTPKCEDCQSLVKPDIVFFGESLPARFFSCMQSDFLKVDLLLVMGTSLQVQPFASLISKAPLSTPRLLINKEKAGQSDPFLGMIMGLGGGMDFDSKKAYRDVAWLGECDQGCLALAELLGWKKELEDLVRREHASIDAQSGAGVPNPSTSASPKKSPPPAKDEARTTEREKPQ

NSD3/WHSC1L1 (h) = target: T6, NSD3/WHSC1L1 (h) (Homo sapiens, UniProt Q9BZ95); assay: Epigenetic enzyme assay, Methyltransferases (MTs); format: biochemical; conditions: Table 10; read-out: Reference IC50
T6 sequence (Q9BZ95 1-1437): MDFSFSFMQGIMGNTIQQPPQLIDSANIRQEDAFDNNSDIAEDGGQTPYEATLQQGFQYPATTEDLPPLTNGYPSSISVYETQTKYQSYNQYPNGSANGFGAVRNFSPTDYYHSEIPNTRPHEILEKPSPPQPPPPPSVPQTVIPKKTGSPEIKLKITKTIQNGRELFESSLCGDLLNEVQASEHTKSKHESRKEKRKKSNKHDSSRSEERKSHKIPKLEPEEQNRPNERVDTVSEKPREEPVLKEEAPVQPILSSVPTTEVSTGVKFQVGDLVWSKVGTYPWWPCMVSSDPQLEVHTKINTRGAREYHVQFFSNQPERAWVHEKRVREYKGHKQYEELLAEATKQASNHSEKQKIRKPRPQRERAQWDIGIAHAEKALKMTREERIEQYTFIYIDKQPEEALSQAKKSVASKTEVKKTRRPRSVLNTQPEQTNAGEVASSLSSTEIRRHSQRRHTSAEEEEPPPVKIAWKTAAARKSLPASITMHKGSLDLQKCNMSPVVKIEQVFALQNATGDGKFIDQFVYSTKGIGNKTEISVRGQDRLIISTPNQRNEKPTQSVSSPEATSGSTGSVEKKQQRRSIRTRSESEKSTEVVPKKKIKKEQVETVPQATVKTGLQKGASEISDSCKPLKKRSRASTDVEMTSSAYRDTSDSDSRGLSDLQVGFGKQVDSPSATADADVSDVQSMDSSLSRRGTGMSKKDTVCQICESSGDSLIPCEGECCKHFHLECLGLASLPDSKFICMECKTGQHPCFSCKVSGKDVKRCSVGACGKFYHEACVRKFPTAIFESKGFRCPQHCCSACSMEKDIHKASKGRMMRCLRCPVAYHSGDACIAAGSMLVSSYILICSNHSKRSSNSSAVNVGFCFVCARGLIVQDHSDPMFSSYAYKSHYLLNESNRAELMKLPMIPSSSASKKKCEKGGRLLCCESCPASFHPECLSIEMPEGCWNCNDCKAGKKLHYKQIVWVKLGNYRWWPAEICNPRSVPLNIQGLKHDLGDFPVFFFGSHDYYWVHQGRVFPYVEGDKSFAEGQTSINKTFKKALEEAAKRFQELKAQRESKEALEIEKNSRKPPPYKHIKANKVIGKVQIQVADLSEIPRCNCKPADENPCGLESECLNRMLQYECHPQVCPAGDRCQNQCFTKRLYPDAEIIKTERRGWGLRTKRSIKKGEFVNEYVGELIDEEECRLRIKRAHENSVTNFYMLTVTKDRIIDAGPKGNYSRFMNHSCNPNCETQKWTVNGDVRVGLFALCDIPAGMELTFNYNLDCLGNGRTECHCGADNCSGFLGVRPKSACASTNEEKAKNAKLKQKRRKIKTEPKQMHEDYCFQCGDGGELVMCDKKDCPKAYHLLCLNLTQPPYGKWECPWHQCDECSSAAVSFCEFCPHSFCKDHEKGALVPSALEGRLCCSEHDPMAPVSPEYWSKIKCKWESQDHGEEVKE

NSD1 (h), sequence (Q96L73 whole entry): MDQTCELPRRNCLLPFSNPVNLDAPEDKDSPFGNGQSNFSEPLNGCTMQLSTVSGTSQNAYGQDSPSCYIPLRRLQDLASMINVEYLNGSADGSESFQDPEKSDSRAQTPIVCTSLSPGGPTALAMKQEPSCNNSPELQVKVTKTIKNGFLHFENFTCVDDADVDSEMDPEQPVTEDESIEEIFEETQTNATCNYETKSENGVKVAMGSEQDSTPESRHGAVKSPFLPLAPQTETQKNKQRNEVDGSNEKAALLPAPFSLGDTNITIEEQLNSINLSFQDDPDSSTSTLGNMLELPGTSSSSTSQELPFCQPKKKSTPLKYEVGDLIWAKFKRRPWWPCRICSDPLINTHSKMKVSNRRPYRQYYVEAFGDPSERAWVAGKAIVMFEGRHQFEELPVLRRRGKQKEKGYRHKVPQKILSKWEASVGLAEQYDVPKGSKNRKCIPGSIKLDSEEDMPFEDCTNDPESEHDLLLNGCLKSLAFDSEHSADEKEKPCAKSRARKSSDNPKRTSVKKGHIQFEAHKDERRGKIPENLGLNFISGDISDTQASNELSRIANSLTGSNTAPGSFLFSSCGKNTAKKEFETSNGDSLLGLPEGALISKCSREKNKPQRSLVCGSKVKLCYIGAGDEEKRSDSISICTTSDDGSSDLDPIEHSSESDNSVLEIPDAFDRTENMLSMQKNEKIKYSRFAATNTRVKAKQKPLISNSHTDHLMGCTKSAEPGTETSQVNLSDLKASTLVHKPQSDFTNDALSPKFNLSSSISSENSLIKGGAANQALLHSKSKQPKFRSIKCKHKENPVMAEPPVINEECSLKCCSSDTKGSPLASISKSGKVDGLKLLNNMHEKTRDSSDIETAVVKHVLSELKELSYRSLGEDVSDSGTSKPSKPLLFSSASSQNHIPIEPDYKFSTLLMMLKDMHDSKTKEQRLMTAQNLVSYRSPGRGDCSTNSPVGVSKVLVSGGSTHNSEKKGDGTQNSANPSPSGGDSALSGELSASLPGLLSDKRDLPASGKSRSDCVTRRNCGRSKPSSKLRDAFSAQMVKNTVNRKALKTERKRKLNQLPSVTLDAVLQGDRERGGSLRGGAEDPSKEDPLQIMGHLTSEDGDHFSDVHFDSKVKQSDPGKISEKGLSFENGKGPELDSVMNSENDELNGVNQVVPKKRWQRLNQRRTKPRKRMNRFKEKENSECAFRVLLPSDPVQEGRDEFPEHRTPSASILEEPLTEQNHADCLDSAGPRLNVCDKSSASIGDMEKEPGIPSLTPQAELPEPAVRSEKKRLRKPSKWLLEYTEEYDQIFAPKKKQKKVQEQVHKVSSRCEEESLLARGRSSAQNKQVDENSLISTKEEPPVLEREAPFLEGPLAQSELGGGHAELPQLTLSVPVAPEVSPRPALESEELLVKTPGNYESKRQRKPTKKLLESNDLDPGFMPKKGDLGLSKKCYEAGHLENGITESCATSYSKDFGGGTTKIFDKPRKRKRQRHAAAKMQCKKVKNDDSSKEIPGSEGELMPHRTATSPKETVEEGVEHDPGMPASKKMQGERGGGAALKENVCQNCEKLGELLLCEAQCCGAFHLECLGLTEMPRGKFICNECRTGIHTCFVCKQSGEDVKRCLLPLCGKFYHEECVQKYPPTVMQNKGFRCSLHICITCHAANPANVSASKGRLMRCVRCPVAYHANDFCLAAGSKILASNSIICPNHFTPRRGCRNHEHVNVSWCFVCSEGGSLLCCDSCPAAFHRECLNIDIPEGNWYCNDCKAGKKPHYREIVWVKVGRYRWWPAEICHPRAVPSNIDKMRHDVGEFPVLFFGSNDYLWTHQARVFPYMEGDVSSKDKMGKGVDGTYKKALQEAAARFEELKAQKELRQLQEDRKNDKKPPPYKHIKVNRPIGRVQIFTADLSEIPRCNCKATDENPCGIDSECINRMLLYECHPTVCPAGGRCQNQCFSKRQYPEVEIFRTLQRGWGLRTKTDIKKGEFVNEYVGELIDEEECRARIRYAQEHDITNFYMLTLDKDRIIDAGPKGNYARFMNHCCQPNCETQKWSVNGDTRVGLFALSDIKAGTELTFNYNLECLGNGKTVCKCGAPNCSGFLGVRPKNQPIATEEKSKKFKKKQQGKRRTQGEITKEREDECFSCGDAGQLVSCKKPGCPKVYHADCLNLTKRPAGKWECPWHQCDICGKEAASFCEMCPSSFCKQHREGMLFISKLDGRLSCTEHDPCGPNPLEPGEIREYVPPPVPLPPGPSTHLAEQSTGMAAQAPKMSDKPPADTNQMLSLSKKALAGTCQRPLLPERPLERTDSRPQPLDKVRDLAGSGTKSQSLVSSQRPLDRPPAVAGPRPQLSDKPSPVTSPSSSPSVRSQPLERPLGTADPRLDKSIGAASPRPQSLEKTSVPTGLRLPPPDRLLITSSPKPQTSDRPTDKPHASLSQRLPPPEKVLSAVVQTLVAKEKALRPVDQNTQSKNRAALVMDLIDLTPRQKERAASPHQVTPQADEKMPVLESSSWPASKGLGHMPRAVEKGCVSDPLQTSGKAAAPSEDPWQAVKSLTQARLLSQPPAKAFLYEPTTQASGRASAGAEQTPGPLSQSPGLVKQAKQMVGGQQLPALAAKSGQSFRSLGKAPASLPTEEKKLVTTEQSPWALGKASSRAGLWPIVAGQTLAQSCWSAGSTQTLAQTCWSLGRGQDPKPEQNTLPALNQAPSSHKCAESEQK
T2 sequence (Q86U86 518-625 limits assumed): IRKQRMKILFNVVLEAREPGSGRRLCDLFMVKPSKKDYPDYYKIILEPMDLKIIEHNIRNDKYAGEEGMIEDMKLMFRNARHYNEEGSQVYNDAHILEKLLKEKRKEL
USP 16 (h), sequence (Q9Y5T5 whole entry): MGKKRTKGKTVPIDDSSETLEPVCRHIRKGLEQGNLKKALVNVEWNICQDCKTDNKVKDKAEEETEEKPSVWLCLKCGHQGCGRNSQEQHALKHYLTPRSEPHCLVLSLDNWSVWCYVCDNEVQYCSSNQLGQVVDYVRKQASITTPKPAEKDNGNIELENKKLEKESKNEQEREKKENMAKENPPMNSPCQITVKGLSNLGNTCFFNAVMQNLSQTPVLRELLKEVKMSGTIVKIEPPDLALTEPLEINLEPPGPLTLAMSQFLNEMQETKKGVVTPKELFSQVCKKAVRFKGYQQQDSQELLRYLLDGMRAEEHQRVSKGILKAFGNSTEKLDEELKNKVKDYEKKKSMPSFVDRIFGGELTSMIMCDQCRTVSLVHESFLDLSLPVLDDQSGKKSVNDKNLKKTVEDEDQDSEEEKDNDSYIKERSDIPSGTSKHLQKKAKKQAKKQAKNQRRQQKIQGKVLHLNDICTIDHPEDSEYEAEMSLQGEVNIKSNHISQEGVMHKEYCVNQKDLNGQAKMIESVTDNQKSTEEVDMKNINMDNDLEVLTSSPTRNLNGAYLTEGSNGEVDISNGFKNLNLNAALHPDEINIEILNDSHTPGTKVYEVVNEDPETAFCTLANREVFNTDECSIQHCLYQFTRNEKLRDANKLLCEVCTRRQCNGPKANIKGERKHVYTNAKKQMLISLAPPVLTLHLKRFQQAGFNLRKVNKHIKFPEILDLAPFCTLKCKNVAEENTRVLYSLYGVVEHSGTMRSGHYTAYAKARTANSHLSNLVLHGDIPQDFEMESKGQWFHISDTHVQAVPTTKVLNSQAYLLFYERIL
USP 10 (h), sequence (Q14694 whole entry): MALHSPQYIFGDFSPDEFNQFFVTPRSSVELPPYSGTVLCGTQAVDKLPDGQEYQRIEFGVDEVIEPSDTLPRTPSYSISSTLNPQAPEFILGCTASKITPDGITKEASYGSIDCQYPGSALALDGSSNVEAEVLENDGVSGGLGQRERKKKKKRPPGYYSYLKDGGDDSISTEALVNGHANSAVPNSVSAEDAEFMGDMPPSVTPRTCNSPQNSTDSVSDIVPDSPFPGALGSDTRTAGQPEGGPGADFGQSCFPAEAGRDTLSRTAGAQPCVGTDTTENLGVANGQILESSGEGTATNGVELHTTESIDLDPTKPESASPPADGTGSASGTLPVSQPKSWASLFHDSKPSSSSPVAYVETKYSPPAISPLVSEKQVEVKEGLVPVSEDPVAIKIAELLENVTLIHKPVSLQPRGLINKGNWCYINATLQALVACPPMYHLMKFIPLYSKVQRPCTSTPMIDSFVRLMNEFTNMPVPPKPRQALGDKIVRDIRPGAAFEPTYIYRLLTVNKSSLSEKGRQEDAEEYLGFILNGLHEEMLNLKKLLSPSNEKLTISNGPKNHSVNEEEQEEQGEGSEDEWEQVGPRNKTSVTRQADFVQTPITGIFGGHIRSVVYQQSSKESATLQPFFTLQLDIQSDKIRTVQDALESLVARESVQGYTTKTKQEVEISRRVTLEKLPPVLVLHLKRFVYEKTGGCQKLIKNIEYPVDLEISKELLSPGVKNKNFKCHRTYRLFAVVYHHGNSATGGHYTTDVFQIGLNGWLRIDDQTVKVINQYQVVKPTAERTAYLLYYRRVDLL

Molecule `NC(=O)CI` [Iodoacetamide, reference compound] has an IC50 (USP 16 (h)) of 3.5 µM.

In the case of `Cc1cc(/N=N/c2cc(S(=O)(=O)O)c(C)cc2C)c(N)cc1O` [Ischemin sodium salt, reference compound], the IC50 (ATAD2B (h) bromodomain) is reported as 76.6 µM and the IC50 (PB1(4) (h) bromodomain) is reported as 6.8 µM.

Molecule `CN1C(=O)C=CC1=O` [N-Methylmaleimide, reference compound] has an IC50 (USP 10 (h)) of 1000 µM.

In the case of `CCCOC(=O)c1cc(O)c(O)c(O)c1` [N-Propyl Gallate, reference compound], the IC50 (Lipid Peroxidase) is reported as 206 µM.

In the case of `CC(=O)O[C@H]1C(=O)[C@@]2(C)[C@H]([C@H](OC(=O)c3ccccc3)[C@]3(O)C[C@H](OC(=O)[C@H](O)[C@@H](NC(=O)c4ccccc4)c4ccccc4)C(C)=C1C3(C)C)[C@]1(OC(C)=O)CO[C@@H]1C[C@@H]2O` [Paclitaxel, paclitaxel], the “toxicity towards normal cells” value [1] is reported as “high toxicity”, the EC50 (HREC; read-out: Cell Count EC50) is reported as 0.00172 µM and the GI50 (HREC; read-out: Cell Count GI50) is reported as 0.0016 µM. For the same molecule, the IC50 (HREC; read-out: Cell Count IC50) was 0.0484 µM, the “toxicity towards normal cells” value (HMEC) was “low toxicity” and the EC50 (HMEC; Homo sapiens, 72 h, HMEC, mammary epithelial, 3-day incubation, read-out: Cell Count EC50) was greater than 30 µM. For the same molecule, the GI50 (HMEC; Homo sapiens, 72 h, HMEC, mammary epithelial, 3-day incubation, read-out: Cell Count GI50) was greater than 30 µM, the IC50 (HMEC; Homo sapiens, 72 h, HMEC, mammary epithelial, 3-day incubation, read-out: Cell Count IC50) was greater than 30 µM and the EC50 (Wi38; read-out: Cell Count EC50) was 0.0039 µM. The GI50 (Wi38; read-out: Cell Count GI50) was 0.0036 µM, the IC50 (Wi38; read-out: Cell Count IC50) was 0.00941 µM and the EC50 (CCD 841 CoN; read-out: Cell Count EC50) was 0.0119 µM. For the same molecule, the GI50 (CCD 841 CoN; read-out: Cell Count GI50) was 0.0221 µM.

In the case of `C=CC[C@@H]1/C=C(\C)C[C@H](C)C[C@H](OC)[C@H]2O[C@@](O)(C(=O)C(=O)N3CCCC[C@H]3C(=O)O[C@H](/C(C)=C/[C@@H]3CC[C@@H](O)[C@H](OC)C3)[C@H](C)[C@@H](O)CC1=O)[C@H](C)C[C@@H]2OC` [Tacrolimus], the “Emax (plateau of the fitted curve), IL-17A release” value [2] is listed as “approximately 90%” and the EC50 ([2]; read-out: EC50, inhibition of IL-17A release) is listed as roughly 0.00034 µM.

`CN1C(=O)[C@@]23C[C@]4([C@]56C[C@@]78SS[C@@](CO)(C(=O)N7[C@H]5Nc5ccccc56)N(C)C8=O)c5ccccc5N[C@@H]4N2C(=O)[C@]1(CO)SS3` [chaetocin, reference compound] gave an IC50 (NSD1 (h); Table 10, read-out: Reference IC50) of 0.13 µM, an IC50 (NSD1 (h); Table 11, inhibition/concentration-response curve, read-out: IC50) of 0.24 µM and an IC50 (WHSC1(h) (NSD2(h))) of 0.48 µM.

In the case of `O=C([O-])c1ccccc1-c1c2cc(Br)c(=O)cc-2oc2[c]([Hg+])c([O-])c(Br)cc12.[Na+].[Na+].[OH-]` [mercurochrome, reference compound], the IC50 (SETD8 (h)) is reported as 2.4 µM.

For `Cc1ccc(C(=O)Nc2ccc(S(=O)(=O)O)c3cc(S(=O)(=O)O)cc(S(=O)(=O)O)c23)cc1NC(=O)c1cccc(NC(=O)Nc2cccc(C(=O)Nc3cc(C(=O)Nc4ccc(S(=O)(=O)O)c5cc(S(=O)(=O)O)cc(S(=O)(=O)O)c45)ccc3C)c2)c1` [suramin, reference compound], the IC50 [3] was 21 µM and the IC50 (NSD3/WHSC1L1 (h)) was 1.5 µM.
